In patent US9464105B2, “Hydroxylated KRN7000 analogue and use thereof” (RIKEN, priority 2012, dated 2016):

Test system: IFN-γ and IL-4 in plasma
Test: Cytokine content in mouse plasma after intravenous administration of glycolipid (Cytometric Bead Array)
Type: in vivo, C57BL/6 mice
Details: tail vein, 100 μg/kg body weight, plasma up to 60 hr (FIG. 1, FIG. 2)
Protocol: Solutions of each of KRN7000, RCAI-147, RCAI-151, and RCAI-160 in dimethyl sulfoxide (DMSO) at a concentration of 1 mg/mL were prepared. The above-mentioned DMSO solutions were diluted 5-fold with 0.5% Tween 20 (Bio-Rad)-containing phosphate buffer (Invitrogen) and further diluted 20-fold with phosphate buffer, such that the dose became 100 μg/kg body weight when 200 μL was administered per mouse from the tail vein.
To three C57BL/6 mice per group was injected each prepared solution (200 μL) of RCAI-147, RCAI-151 and RCAI-160 into the tail vein (administration of about 2 μg per mouse). As a control substance, KRN7000 was used, and a solution (200 μL) of KRN7000 prepared in the same manner such that the dose became 100 μg/kg body weight was injected into the tail vein. The blood (80 μL) immediately before administration, and after lapse of 1, 3, 6, 12, 24, 32, 48 and 60 hr was collected from orbital plexus venosus, and plasma was prepared.
The content of each cytokine in plasma immediately before and after administration of each glycolipid was measured by Cytometric Bead Array (CBA) system (BD Biosciences) which is one of the ELISA methods.
The measurement results (mean) and standard deviation thereof (STDEV) of the content of IFN-γ in plasma immediately before administration, and after lapse of 3, 6, 12, 24, 32, 48 and 60 hr are shown in FIG. 1. The measurement results (mean) and standard deviation thereof (STDEV) of the content of IL-4 in plasma immediately before administration, and after lapse of 1, 3, 6, 12 and 24 hr from the administration are shown in FIG. 2.

| Compound | cytokine production induction activity (IFN-γ / IL-4 bias) as compared to KRN7000 |
| --- | --- |
| CCCCCCCCCCCCCCCCCCCCCCC[C@@H](O)[C@@H](O)C(=O)N[C@@H](COC1OC(CO)C(O)C(O)C1O)[C@H](O)[C@H](O)CCCCCCCCCCCCCC (stereo partly drawn) [RCAI-151, (2S,3S,4R)-3,4-dihydroxy-2-[(2′R,3′R)-2′,3′-dihydroxyhexacosanoylamino]octadecyl α-D-galactopyranoside] | cytokine production induction activity biased to the IL-4 as compared to KRN7000 |
| CCCCCCCCCCCCCCCCCCCCCCC[C@@H](O)[C@@H](O)C(=O)N[C@@H](COC1OC(CO)C(O)C(O)C1O)[C@H](O)[C@H](O)[C@@H](O)[C@@H](O)CCCCCCCCCCCC (stereo partly drawn) [RCAI-147, (2S,3S,4S,5S,6S)-2-[(2′R,3′R)-2′,3′-(dihydroxy)hexacosanoylamino]-3,4,5,6-(tetrahydroxy)octadecyl α-D-galactopyranoside] | cytokine production induction activity biased to the IL-4 as compared to KRN7000 |
| CCCCCCCCCCCCCCCCCCCCCC[C@@H](O)[C@@H](O)[C@@H](O)C(=O)N[C@@H](CO[C@H]1O[C@H](CO)[C@H](O)[C@H](O)[C@H]1O)[C@H](O)[C@H](O)CCCCCCCCCCCCCC [RCAI-160, (2S,3S,4R)-2-[(2′R,3′R,4′R)-2′,3′,4′-trihydroxyhexacosanoyl]amino-3,4-di-hydroxyoctadecyl α-D-galactopyranoside] | cytokine production induction activity biased to the IL-4 as compared to KRN7000 |
